Results published in patent US9499519B2, “Fused pyrimidine compounds and use thereof” (Medivation Technologies, Inc., priority 2012, dated 2016).

Experiments:
[1] = tested on: Akt phosphorylation induced by IGF-1R; assay: Western blot analysis of Akt phosphorylation induced by IGF-1 in HT-29 cells; assay type: cell-based, Human; settings: for Levels of phosphorylated AKT in treated cells (pAKT/actin): HT-29 cells, IGF-1; for p-AKT relative to levels with 0.1 nM compound: Table B2 lower part; for Normalized phosphorylated AKT (relative to actin) levels relative to 0.1 nM compound treatment: Table B2 upper part
In short: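 HT-29 cells grown 24 h in DME/F12 with 10% FBS, serum-starved 24 h, then exposed 2 h to compound at 0.1, 1, 10 or 100; controls received DMSO or 10 ng/mL IGF-1. Lysate soluble fractions quantified by BCA before western blotting for phospho-Akt.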

IGF-1R = target: T1, IGF-1R (Homo sapiens, UniProt P08069); assay: In vitro IGF-1R enzymatic assay (ADP-Glo kinase assay); assay type: biochemical; settings: activated IGF-1R; for inhibition at 1 µM: in duplicate, read-out: inhibition of binding
T1 construct: purchased Millipore 14-802
Description: (§1) IC50 values of the compounds of the invention against IGF-1R and IR were measured in vitro using an ADP-Glo kinase assay Kit (Promega). […] Kinase reactions in both assays were conducted at 30° C. for 20 min with increasing concentrations of compounds of the invention.
Additional compounds of the invention were screened against activated IGF-1R.

IR [2] = target: T2, IR (Homo sapiens, UniProt P06213); assay: In vitro IR enzymatic assay (ADP-Glo kinase assay); assay type: biochemical; settings: activated IR, 30 nM
T2 construct: purchased Millipore 14-803
Description: as §1
Additional compounds of the invention were screened against activated IR.

Trk A = Trk A (Homo sapiens, UniProt P04629); assay: HotSpot kinase assay: Trk A; assay type: biochemical; settings: 100 nM compound; for inhibition at 0.1 µM: read-out: % Enzyme Inhibition @ 100 nM Trk A
Description: Kinase assays were performed using additional compounds against a panel of 3 kinases: Trk A; Trk B; and Trk C. Each compound was tested at a concentration of 0.1 μM in single duplicate mode against the 3 kinases. Compounds were prepared as 10 mM stock solutions in DMSO prior to use in the assay. […] IC50 values and curve fits were obtained using Prism (GraphPad Software). […]
The screening was performed using the “HotSpot” assay platform. The assay measures the conversion of a peptide substrate to ^33P-labelled phosphorylated product. Briefly, specific kinase/substrate pairs along with required cofactors were prepared in reaction buffer. Specifically, the substrate was prepared in reaction buffer (20 mM Hepes, pH 7.5; 10 mM MgCl2; 1 mM EGTA; 0.02% Brij35; 0.02 mg/mL BSA; 0.1 mM Na3VO4; 2 mM DTT; 1% DMSO), followed by delivery of any required cofactor to the resulting substrate solution. The corresponding kinase was delivered into the substrate solution and the reaction mixture was mixed gently. Compound was delivered into the reaction mixture, followed 15-20 minutes later by addition of a mixture of ATP (Sigma, St. Louis Mo.) and ^33P ATP (specific activity 0.01 μCi/μL final; Perkin Elmer, Waltham, Mass.) to a final concentration of 10 μM-30 μM to initiate the reaction. Reactions were carried out at room temperature for 120 minutes, followed by spotting of the reactions onto P81 ion exchange filter paper (Whatman #3698-915; Whatman Inc., Piscataway, N.J.). Unbound phosphate was removed by extensive washing of filters in 0.75% phosphoric acid. […] The percent of enzyme inhibition was calculated based on the percent of remaining kinase activity.

Trk B = Trk B (Homo sapiens, UniProt Q16620); assay: HotSpot kinase assay: Trk B; assay type: biochemical; settings: 100 nM compound; for inhibition at 0.1 µM: read-out: % Enzyme Inhibition @ 100 nM Trk B
Description: (§2) Each compound was tested at a concentration of 0.1 μM in single duplicate mode against the 3 kinases. Compounds were prepared as 10 mM stock solutions in DMSO prior to use in the assay. […] IC50 values and curve fits were obtained using Prism (GraphPad Software).
(§3) The screening was performed using the “HotSpot” assay platform. The assay measures the conversion of a peptide substrate to ^33P-labelled phosphorylated product. Briefly, specific kinase/substrate pairs along with required cofactors were prepared in reaction buffer. Specifically, the substrate was prepared in reaction buffer (20 mM Hepes, pH 7.5; 10 mM MgCl2; 1 mM EGTA; 0.02% Brij35; 0.02 mg/mL BSA; 0.1 mM Na3VO4; 2 mM DTT; 1% DMSO), followed by delivery of any required cofactor to the resulting substrate solution. The corresponding kinase was delivered into the substrate solution and the reaction mixture was mixed gently. Compound was delivered into the reaction mixture, followed 15-20 minutes later by addition of a mixture of ATP (Sigma, St. Louis Mo.) and ^33P ATP (specific activity 0.01 μCi/μL final; Perkin Elmer, Waltham, Mass.) to a final concentration of 10 μM-30 μM to initiate the reaction. […] The percent of enzyme inhibition was calculated based on the percent of remaining kinase activity.

Trk C = Trk C (Homo sapiens, UniProt Q16288); assay: HotSpot kinase assay: Trk C; assay type: biochemical; settings: 100 nM compound, HotSpot; for inhibition at 0.1 µM: read-out: % Enzyme Inhibition @ 100 nM Trk C
Description: as §2, §3
Kinase assays were performed using additional compounds against a panel of 4 kinases: AXL; c-Met; c-Mer; and Trk C. Each compound was tested at a concentration of […] in single duplicate mode against the 4 kinases. Compounds were prepared as 10 mM stock solutions in DMSO prior to use in the assay. […] IC50 values and curve fits were obtained using Prism (GraphPad Software).

IR [3] = target: T2, IR; assay: In vitro IR enzymatic assay (ADP-Glo kinase assay); assay type: biochemical; settings: activated IR, in duplicate, read-out: inhibition of binding

T1 sequence (P08069 31-1367): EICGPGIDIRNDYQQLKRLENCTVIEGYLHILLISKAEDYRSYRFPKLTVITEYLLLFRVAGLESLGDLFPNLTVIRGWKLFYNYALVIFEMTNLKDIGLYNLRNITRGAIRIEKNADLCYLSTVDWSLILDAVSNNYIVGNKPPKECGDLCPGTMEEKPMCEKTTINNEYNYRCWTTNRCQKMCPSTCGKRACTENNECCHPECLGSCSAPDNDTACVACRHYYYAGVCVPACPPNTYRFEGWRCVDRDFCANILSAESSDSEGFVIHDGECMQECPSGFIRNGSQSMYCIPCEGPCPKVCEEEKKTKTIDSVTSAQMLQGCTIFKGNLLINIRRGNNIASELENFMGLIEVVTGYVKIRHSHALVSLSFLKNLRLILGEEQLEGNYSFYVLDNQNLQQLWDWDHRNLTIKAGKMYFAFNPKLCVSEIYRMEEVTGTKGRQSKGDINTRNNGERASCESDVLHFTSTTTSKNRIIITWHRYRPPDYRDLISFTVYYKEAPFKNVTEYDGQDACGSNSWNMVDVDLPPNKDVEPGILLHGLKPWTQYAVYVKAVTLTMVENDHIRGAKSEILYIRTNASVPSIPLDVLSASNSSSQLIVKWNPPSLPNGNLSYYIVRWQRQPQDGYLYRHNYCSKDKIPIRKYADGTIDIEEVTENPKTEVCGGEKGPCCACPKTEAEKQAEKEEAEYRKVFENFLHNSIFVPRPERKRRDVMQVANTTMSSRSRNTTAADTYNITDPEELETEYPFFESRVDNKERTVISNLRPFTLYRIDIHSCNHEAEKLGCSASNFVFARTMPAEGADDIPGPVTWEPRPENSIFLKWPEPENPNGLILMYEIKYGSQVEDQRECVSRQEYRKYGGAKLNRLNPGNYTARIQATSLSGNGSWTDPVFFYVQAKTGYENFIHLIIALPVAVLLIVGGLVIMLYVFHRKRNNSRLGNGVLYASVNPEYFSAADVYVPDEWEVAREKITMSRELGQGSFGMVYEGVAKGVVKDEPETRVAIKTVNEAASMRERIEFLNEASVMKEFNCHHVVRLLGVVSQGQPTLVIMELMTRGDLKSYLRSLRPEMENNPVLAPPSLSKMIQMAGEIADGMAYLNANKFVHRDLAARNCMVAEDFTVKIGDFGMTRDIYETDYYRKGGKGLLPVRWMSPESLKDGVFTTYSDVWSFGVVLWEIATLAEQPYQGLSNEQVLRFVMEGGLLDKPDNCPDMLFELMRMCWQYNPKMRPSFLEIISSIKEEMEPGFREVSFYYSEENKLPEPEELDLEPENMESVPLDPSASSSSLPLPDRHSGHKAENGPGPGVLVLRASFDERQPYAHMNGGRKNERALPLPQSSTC
Chain of Trk A (P04629 33-796): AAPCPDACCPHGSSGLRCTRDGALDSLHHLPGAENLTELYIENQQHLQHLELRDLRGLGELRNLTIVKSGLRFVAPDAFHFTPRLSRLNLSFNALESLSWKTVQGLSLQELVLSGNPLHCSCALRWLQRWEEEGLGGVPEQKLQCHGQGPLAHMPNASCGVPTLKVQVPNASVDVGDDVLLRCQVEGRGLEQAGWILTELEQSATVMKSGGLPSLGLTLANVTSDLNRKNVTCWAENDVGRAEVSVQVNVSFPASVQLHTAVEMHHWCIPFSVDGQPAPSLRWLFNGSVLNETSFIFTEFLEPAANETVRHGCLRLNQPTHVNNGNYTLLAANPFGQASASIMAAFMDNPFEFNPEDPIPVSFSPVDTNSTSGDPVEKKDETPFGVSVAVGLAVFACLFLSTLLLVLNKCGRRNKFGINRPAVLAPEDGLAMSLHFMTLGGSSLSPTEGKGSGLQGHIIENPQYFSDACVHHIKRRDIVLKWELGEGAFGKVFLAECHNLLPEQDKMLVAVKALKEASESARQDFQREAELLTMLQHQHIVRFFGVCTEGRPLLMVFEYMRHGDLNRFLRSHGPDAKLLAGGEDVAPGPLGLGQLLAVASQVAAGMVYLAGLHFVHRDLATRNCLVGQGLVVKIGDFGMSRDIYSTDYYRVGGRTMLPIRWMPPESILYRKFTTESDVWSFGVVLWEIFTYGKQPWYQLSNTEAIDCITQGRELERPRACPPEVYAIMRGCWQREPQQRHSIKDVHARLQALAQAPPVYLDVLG
T2 sequence (P06213 28-1382): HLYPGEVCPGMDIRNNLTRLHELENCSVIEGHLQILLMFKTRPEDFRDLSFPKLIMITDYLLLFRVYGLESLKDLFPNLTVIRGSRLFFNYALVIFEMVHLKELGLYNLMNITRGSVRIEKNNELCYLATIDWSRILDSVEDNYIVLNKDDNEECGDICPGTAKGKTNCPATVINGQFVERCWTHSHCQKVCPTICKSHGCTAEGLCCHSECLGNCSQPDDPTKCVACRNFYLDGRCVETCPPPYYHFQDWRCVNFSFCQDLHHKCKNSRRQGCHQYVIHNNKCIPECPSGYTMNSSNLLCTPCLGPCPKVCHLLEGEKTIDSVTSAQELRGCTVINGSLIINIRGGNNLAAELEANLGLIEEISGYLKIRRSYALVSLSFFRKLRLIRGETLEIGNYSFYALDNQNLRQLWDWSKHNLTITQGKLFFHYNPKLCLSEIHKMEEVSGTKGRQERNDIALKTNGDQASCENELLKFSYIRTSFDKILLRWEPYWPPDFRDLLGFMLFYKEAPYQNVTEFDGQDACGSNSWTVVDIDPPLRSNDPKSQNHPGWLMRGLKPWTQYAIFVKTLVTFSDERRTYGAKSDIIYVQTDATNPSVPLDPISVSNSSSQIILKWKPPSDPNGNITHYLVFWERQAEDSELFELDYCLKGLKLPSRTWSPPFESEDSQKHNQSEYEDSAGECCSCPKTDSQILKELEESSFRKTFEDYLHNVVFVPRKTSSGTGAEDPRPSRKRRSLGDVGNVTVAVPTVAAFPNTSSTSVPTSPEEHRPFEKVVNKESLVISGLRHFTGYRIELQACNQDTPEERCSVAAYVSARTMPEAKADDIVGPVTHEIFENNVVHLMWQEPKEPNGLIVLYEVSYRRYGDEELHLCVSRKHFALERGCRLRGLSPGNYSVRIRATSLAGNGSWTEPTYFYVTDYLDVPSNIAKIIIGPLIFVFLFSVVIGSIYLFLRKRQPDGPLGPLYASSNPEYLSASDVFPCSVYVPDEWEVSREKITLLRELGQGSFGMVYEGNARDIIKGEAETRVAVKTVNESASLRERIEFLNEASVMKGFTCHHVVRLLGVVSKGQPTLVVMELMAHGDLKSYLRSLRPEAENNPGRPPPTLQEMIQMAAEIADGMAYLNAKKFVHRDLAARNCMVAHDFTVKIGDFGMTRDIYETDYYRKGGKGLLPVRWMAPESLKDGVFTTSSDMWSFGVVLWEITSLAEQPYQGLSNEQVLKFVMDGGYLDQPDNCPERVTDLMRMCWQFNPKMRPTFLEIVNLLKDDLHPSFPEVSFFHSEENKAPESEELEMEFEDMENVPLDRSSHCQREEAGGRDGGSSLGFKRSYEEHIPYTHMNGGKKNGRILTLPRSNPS
Chain of Trk B (Q16620 32-822): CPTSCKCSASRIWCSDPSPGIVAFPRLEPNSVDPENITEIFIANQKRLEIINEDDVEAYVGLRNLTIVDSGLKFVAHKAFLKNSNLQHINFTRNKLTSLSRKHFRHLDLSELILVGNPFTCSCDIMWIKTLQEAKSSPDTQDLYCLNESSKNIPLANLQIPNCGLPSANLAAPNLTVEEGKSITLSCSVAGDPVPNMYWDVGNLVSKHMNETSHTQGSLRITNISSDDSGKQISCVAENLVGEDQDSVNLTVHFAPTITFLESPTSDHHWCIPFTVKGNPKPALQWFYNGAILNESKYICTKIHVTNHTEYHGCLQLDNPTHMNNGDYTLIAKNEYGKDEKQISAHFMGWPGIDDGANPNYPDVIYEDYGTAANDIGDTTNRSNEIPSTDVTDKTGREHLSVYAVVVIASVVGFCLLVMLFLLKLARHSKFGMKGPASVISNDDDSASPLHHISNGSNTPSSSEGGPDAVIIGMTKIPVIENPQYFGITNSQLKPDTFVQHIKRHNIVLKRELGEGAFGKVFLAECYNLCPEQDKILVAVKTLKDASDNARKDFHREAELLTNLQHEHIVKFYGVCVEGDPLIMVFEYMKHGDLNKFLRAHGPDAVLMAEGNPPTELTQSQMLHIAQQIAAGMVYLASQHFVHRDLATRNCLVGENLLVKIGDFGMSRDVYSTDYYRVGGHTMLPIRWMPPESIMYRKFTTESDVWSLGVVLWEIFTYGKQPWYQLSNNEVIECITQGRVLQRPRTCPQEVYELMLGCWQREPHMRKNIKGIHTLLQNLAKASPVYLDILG
Chain of Trk C (Q16288 32-839): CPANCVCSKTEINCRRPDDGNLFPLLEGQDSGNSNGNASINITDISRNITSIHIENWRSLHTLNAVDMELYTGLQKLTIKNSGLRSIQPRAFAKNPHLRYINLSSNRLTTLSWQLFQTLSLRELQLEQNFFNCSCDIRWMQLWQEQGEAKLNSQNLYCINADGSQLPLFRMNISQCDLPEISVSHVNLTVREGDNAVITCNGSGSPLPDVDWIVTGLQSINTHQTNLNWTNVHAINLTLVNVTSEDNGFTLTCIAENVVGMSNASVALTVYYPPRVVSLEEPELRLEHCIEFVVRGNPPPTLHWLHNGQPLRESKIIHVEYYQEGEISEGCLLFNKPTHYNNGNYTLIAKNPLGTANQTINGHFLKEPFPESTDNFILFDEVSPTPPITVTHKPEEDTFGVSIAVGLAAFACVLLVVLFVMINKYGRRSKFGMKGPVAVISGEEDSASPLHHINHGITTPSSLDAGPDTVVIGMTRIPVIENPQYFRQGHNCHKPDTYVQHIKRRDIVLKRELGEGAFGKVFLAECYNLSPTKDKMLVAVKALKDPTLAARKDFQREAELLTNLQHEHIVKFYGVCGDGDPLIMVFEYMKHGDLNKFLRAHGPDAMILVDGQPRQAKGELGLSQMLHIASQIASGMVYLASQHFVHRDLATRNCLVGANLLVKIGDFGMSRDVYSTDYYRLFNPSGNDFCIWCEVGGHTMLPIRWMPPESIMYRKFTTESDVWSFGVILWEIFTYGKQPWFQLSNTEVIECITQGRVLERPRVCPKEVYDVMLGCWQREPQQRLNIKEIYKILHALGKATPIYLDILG

inhibition at 1 µM (IGF-1R) [%] | inhibition at 1 µM (IR [3]) [%] | inhibition at 0.1 µM (Trk A) [%] | inhibition at 0.1 µM (Trk B) [%] | inhibition at 0.1 µM (Trk C) [%] | SMILES | % Enzyme Inhibition @ 100 nM Trk B (Trk B) | % Enzyme Inhibition @ 100 nM Trk C (Trk C) | other results
< 35 | ≤ 40 |  |  |  | CN(C)C(=O)C1CC(O)CN1c1nc2c(c(Nc3cc(C4CCCC4)[nH]n3)n1)CCC2 (stereo not shown) [Compound 110a, 1-(4-(5-cyclopentyl-1H-pyrazol-3-ylamino)-6,7-dihydro-5H-cyclopenta[d]pyrimidin-2-yl)-4-hydroxy-N,N-dimethylpyrrolidine-2-carboxamide] | ++ (Medium (40 to 59% inhibition, ++)) | +++ (High (60% or higher inhibition, +++)) | % Enzyme Inhibition @ 100 nM Trk A (Trk A): + (Low (39% or lower inhibition, +))
 |  | < 39 | < 39 | 40 to 59 | CN(C)C(=O)C1CC(O)CN1c1nc2c(c(Nc3cc(C4CCCC4)[nH]n3)n1)CCC2 (stereo not shown) [Compound 110b, 1-(4-(5-cyclopentyl-1H-pyrazol-3-ylamino)-6,7-dihydro-5H-cyclopenta[d]pyrimidin-2-yl)-4-hydroxy-N,N-dimethylpyrrolidine-2-carboxamide] |  |  | 
< 35 | ≤ 40 | 40 to 59 | > 60 | > 60 | O=C(C1CCCN1c1nc2c(c(Nc3cc(C4CCCC4)[nH]n3)n1)CCC2)N1CCCCC1 (stereo not shown) [Compound 111a, (1-(4-(5-cyclopentyl-1H-pyrazol-3-ylamino)-6,7-dihydro-5H-cyclopenta[d]pyrimidin-2-yl)pyrrolidin-2-yl)(piperidin-1-yl)methanone] |  |  | 
 |  | 40 to 59 |  | > 60 | O=C(C1CCCN1c1nc2c(c(Nc3cc(C4CCCCC4)[nH]n3)n1)CCC2)N1CCCCC1 (stereo not shown) [Compound 113b, (1-(4-(5-cyclohexyl-1H-pyrazol-3-ylamino)-6,7-dihydro-5H-cyclopenta[d]pyrimidin-2-yl)pyrrolidin-2-yl)(piperidin-1-yl)methanone] | +++ (High (60% or higher inhibition, +++)) |  | 
 |  | < 39 | > 60 | > 60 | CN(C)C(=O)C1CCCN1c1nc2c(c(Nc3cc(C4CCCCC4)[nH]n3)n1)CCC2 (stereo not shown) [Compound 114b, 1-(4-(5-cyclohexyl-1H-pyrazol-3-ylamino)-6,7-dihydro-5H-cyclopenta[d]pyrimidin-2-yl)-N,N-dimethylpyrrolidine-2-carboxamide] |  |  | 

Further lines, the compound ahead of its results:

SMILES | inhibition at 1 µM (IGF-1R) [%] | inhibition at 1 µM (IR [3]) [%] | inhibition at 0.1 µM (Trk A) [%] | inhibition at 0.1 µM (Trk B) [%] | inhibition at 0.1 µM (Trk C) [%] | % Enzyme Inhibition @ 100 nM Trk B (Trk B) | % Enzyme Inhibition @ 100 nM Trk C (Trk C) | other results
O=C(Nc1ccc(F)nc1)C1CCCCN1c1nc2c(c(Nc3cc(C4CCCC4)[nH]n3)n1)CCC2 (single isomer, unassigned) [Compound 17b, 1-(4-(5-cyclopentyl-1H-pyrazol-3-ylamino)-6,7-dihydro-5H-cyclopenta[d]pyrimidin-2-yl)-N-(6-fluoropyridin-3-yl)piperidine-2-carboxamide] |  |  |  |  |  |  |  | Levels of phosphorylated AKT in treated cells (pAKT/actin) ([1]; 0.1 nM compound): 0.83; p-AKT relative to levels with 0.1 nM compound ([1]; 0.1 nM): 1.0; Normalized phosphorylated AKT (relative to actin) levels relative to 0.1 nM compound treatment ([1]; 0.1 nM): 1.0; Levels of phosphorylated AKT in treated cells (pAKT/actin) ([1]; 1 nM compound): 0.99; p-AKT relative to levels with 0.1 nM compound ([1]; 1 nM): 1.2; Normalized phosphorylated AKT (relative to actin) levels relative to 0.1 nM compound treatment ([1]; 1 nM): 1.2; Levels of phosphorylated AKT in treated cells (pAKT/actin) ([1]; 10 nM compound): 0.95; p-AKT relative to levels with 0.1 nM compound ([1]; 10 nM): 1.1; Normalized phosphorylated AKT (relative to actin) levels relative to 0.1 nM compound treatment ([1]; 10 nM): 1.1; Levels of phosphorylated AKT in treated cells (pAKT/actin) ([1]; 100 nM compound): 1.08; p-AKT relative to levels with 0.1 nM compound ([1]; 100 nM): 1.3; Normalized phosphorylated AKT (relative to actin) levels relative to 0.1 nM compound treatment ([1]; 100 nM): 1.3; % Inh @ 30 nM (N1) (IGF-1R; 30 nM, N1, 0.03 µM): 21%; % Inh @ 30 nM (N2) (IGF-1R; 30 nM, N2, 0.03 µM): 23%; % Inh @ 30 nM Avg (IGF-1R; 30 nM, average): 22%; % Inh @ 30 nM (N1) (IR [2]; N1): 2%; % Inh @ 30 nM (N2) (IR [2]; N2, 0.03 µM): 10%; % Inh @ 30 nM Avg (IR [2]; average): 6%
CC(C)c1cc(Nc2nc(N3CC(O)CC3C(=O)N3CCCCC3)nc3c2CCC3)n[nH]1 (stereo not shown) [Compound 107a, (4-hydroxy-1-(4-(5-isopropyl-1H-pyrazol-3-ylamino)-6,7-dihydro-5H-cyclopenta[d]pyrimidin-2-yl)pyrrolidin-2-yl)(piperidin-1-yl)methanone] | < 35 | ≤ 40 |  |  |  | ++ (Medium (40 to 59% inhibition, ++)) | +++ (High (60% or higher inhibition, +++)) | % Enzyme Inhibition @ 100 nM Trk A (Trk A): + (Low (39% or lower inhibition, +))
CC(C)c1cc(Nc2nc(N3CC(O)CC3C(=O)N3CCCCC3)nc3c2CCC3)n[nH]1 (stereo not shown) [Compound 107b, (4-hydroxy-1-(4-(5-isopropyl-1H-pyrazol-3-ylamino)-6,7-dihydro-5H-cyclopenta[d]pyrimidin-2-yl)pyrrolidin-2-yl)(piperidin-1-yl)methanone] |  |  | < 39 | < 39 |  |  | + (Low (39% or lower inhibition, +)) | 
O=C(C1CC(O)CN1c1nc2c(c(Nc3cc(C4CCCC4)[nH]n3)n1)CCC2)N1CCCCC1 (stereo not shown) [Compound 108a, (1-(4-(5-cyclopentyl-1H-pyrazol-3-ylamino)-6,7-dihydro-5H-cyclopenta[d]pyrimidin-2-yl)-4-hydroxypyrrolidin-2-yl)(piperidin-1-yl)methanone] | < 35 | ≤ 40 |  |  |  | +++ (High (60% or higher inhibition, +++)) | +++ (High (60% or higher inhibition, +++)) | % Enzyme Inhibition @ 100 nM Trk A (Trk A): + (Low (39% or lower inhibition, +))
O=C(C1CC(O)CN1c1nc2c(c(Nc3cc(C4CCCC4)[nH]n3)n1)CCC2)N1CCCCC1 (stereo not shown) [Compound 108b, (1-(4-(5-cyclopentyl-1H-pyrazol-3-ylamino)-6,7-dihydro-5H-cyclopenta[d]pyrimidin-2-yl)-4-hydroxypyrrolidin-2-yl)(piperidin-1-yl)methanone] |  |  | 40 to 59 | 40 to 59 | > 60 |  |  | 
CC(C)c1cc(Nc2nc(N3CC(O)CC3C(=O)N(C)C)nc3c2CCC3)n[nH]1 (stereo not shown) [Compound 109a, 4-hydroxy-1-(4-(5-isopropyl-1H-pyrazol-3-ylamino)-6,7-dihydro-5H-cyclopenta[d]pyrimidin-2-yl)-N,N-dimethylpyrrolidine-2-carboxamide] | < 35 | ≤ 40 | < 39 | < 39 | < 39 |  |  | 
